Data: patent publication US20030203975A1, “Anti-cancer agents” (priority 1998, published 2003)

Assays:
[1] = test system: MAC 15A adenocarcinoma of the colon; experiment: In vitro chemosensitivity against MAC 15A adenocarcinoma (MTT assay); assay type: cell-based; conditions: Mus musculus, MAC15A, 96 hours continuous exposure
Experimental: In Vitro Activity Against MAC 15A Adenocarcinoma.
MAC 15A cells were grown in RPMI 1640 medium supplemented with 10% foetal calf serum containing a 1% antibiotic mixture under standard tissue culture conditions and were maintained at 37° C. in a humidified atmosphere of 5% CO2 in air. Cells were harvested from a stock culture in exponential growth phase and plated in 96-well flat-bottomed plates to achieve a final density of 2×10^3 cells per well. After 2 hours incubation medium was replaced with either fresh medium containing 0.5% DMSO (control) or medium containing test compound dissolved in DMSO at a concentrations from 10 mM to 1 nM. Chemosensitivity was assessed using MTT assay by the method of Plumb et al Cancer Research 49 (1989) 4435-4440.
Following 96 hours continuous exposure to drug at 37° C. cells were incubated with fresh drug-free medium immediately prior to addition of MTT solution (5 mg/ml). Medium and MTT were removed after 4 hours and 150 μl of DMSO was added. For each plate the absorbance of the resulting solution was measured at the analytical wavelength 550 nm for formazan product, using a Labsystem Mutiskan. IC50 values were obtained from growth curves of drug concentration against % survival and are expressed in μm.

[2] = target: T1, Topoisomerase IIα (Homo sapiens, UniProt P11388); experiment: Topo II relaxation assay; assay type: biochemical; parameters: key: ‘—’ = Not active; conditions: unit not given; compound at 1, 10, 25 and 50 μM in protocol
T1 sequence (P11388 whole entry): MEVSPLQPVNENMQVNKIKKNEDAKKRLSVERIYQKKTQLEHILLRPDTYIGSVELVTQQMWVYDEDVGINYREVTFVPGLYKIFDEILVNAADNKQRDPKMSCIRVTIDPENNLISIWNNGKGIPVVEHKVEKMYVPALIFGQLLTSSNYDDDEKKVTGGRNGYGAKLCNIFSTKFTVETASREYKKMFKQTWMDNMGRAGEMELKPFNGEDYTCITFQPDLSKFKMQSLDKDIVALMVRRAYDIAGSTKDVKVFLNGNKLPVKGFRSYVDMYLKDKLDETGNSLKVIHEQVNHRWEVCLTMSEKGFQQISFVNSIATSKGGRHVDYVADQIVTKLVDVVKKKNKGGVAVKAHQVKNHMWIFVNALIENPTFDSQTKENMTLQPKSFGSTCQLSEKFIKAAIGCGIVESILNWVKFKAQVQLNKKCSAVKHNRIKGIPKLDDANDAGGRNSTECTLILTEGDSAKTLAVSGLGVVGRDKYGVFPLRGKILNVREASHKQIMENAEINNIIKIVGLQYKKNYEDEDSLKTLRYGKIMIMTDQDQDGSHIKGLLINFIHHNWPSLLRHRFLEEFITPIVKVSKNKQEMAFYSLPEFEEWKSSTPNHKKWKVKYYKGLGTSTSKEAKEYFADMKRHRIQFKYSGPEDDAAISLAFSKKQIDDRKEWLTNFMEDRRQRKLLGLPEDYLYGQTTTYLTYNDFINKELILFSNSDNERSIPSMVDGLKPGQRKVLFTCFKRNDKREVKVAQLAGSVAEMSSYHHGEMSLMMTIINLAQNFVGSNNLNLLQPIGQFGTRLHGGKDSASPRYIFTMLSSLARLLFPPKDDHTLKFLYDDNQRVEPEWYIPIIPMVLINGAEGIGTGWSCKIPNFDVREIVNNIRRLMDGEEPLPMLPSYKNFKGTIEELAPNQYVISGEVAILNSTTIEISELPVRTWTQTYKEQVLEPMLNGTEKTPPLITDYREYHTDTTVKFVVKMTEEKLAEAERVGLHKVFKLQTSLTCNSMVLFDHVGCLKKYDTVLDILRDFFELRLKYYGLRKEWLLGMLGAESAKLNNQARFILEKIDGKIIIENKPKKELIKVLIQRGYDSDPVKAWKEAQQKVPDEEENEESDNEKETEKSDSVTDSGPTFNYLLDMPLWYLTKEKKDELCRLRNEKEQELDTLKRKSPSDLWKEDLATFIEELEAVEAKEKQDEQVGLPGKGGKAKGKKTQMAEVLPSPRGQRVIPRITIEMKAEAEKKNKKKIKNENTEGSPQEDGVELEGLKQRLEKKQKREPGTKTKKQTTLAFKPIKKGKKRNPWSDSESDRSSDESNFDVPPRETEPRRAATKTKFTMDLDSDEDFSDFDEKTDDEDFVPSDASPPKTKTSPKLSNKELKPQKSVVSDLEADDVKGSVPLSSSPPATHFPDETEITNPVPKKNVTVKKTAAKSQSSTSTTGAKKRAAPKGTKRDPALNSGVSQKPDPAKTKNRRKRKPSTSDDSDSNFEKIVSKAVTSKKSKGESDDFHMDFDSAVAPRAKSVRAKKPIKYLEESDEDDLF
Experimental: (§1) Topo II Relaxation Assay Protocol
(§2) 10×Topo II Relaxation Buffer
(§3) 500 mM Tris-HCl (pH 7.5); 100 mM mgCI2; 50 mM EDTA; 300 mg/mI BSA; 10 mM DTT; −20° C.

[3] = target: T2, Topoisomerase IIβ (Homo sapiens, UniProt Q02880); experiment: Topo II relaxation assay; assay type: biochemical; parameters: key: ‘—’ = Not active; conditions: unit not given; compound at 1, 10, 25 and 50 μM in protocol
T2 sequence (Q02880 whole entry): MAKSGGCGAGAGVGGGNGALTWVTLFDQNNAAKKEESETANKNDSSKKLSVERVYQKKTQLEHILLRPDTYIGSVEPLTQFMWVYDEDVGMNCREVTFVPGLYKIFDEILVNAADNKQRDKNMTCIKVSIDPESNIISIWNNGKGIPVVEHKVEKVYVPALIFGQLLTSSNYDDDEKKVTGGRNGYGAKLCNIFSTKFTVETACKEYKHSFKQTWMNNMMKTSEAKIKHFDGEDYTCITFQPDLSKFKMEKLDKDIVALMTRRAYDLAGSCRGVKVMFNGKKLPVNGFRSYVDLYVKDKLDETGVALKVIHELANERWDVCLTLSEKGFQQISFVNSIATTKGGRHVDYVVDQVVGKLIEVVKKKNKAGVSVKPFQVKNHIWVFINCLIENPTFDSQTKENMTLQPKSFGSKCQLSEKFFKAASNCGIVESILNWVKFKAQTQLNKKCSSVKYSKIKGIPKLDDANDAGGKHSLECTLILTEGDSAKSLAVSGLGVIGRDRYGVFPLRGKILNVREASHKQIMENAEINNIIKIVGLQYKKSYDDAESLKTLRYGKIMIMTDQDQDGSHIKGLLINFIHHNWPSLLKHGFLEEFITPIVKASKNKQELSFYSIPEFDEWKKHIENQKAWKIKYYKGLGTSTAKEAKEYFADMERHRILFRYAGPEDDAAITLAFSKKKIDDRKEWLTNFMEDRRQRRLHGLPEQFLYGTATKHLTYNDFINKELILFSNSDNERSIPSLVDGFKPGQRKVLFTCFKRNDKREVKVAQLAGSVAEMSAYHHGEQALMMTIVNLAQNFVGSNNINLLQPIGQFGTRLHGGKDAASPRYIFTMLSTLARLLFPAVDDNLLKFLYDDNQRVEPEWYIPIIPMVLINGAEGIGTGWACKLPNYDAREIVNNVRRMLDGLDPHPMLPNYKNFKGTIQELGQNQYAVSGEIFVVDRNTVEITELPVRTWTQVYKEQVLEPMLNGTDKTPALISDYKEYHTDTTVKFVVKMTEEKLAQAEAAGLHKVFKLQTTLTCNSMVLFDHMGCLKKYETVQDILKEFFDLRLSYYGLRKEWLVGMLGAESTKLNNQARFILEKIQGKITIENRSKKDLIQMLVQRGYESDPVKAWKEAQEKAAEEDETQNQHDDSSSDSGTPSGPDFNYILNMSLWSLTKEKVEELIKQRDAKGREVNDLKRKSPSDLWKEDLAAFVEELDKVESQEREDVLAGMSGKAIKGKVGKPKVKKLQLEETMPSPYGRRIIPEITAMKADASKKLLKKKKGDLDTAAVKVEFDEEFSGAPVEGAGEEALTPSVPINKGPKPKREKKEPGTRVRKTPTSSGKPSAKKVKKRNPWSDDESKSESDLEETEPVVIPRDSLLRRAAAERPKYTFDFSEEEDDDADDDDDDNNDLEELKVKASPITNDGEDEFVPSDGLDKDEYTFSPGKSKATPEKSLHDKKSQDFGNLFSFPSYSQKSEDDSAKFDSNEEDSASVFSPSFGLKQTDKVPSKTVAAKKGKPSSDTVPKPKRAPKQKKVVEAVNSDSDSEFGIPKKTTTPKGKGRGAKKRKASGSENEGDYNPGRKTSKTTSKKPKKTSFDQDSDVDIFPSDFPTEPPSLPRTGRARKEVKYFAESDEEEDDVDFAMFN
Experimental: as §1, §2, §3

[4] = target: T2, Topoisomerase IIβ; experiment: Topo II decatenation assay; assay type: biochemical; conditions: unit not given; kDNA substrate; compound at 1, 10, 25 and 50 μM in protocol
Experimental: (§4) Topisomerase Decatenation Assay.
(§5) This method uses catenated DNA substrate prepared from the kinetoplast of the insect trypanosome Crithidia fasciculata. Upon incubation with topo II, which engages DNA in a double stranded breakage-reunion cycle, DNA minicircles are released. Addition of topo-inhibiting drugs may prevent decatenation.
(§6) Topo II Decatenation Assay Protocol
(§7) This assay is the same as the Topo II Relaxation assay except that the pBR 322 Plasmid DNA is replaced with kDNA.
(§8) Results are included in Table 3 below

[5] = target: T1, Topoisomerase IIα; experiment: Topo II decatenation assay; assay type: biochemical; parameters: key: ‘—’ = Not active; conditions: unit not given; kDNA substrate; compound at 1, 10, 25 and 50 μM in protocol
Experimental: as §4, §5, §6, §7, §8

[6] = test system: DNA: Calf thymus sodium salt; experiment: DNA binding assay, ethidium bromide displacement; parameters: key: NB = Not binding; conditions: concentration required to displace 50% of the ethidium bromide; 20 μM DNA, 2 μM dye
Experimental: (§9) The propensity of selected compounds to bind to DNA in the absence of topos was measured in order to identify compounds that would bind weakly, or not at all. […] A […] was used determine binding constants of the compound to DNA by displacement of either ethidium bromide (an intercalator) or Hoechst dye 33258 (a groove binder) which form a DNA-bound fluorescent complex measured by fluorescence spectroscopy.
(§10) DNA Binding Assay Protocol
(§11) In order to detect the strength and mode of anthraquinone compound binding to DNA the displacement of known DNA binders was detected by measuring the fluorescence of a DNA/fluorescent compound complex. The addition of known concentrations of ethidium bromide, an interchelator, and Hoescht Dye, a groove binder, cause a fluorescent DNA/binder complex that can be detected and the fluorescence quantified. The addition of anthraquinone compounds displaces the interchelators or groove binders, depending on the compound mode of DNA binding, and therefore reduces the fluorescence accordingly. The preferred binding action of compounds can be quantified by determining the reduction in fluorescence resulting from a given concentration of compound. The quantification of a compounds ability to bind to DNA is expressed, as the concentration required to displace 50% of the ethidium bromide or Hoescht Dye, thus reducing the fluorescence by 50%. Therefore, the values produced are QE50 for ethidium, bromide, or QH50 for Hoescht Dye.
(§12) Compound: 300, 60, 10 and 10/6gM (1.66 μM) solution concentrations were prepared for use in the assay to produce a range of compound. Concentrations. 100, 200 and 300 μl of each dilution were used in the assay reaction. This provides a range of concentrations: −30, 20, 10, 6, 4, 2, 1, 0.67, 0.33, 0.17, 0.11, 0.06, 0.00 μM in the assay environment. Intermediate concentrations can be utilised to enhance the accuracy of the displacement concentration determination.
(§13) Buffer: 100 mM Tris, NaCI 500 mM. DNA: Calf thymus sodium salt. Stock solution of 200 μM was prepared in 10× assay buffer. Dilution of DNA therefore provided the correct concentration of assay buffer in the assay cell.300 μg DNA was used in 3 ml reaction mixture therefore 20 μM DNA concentration. Hoescht Dye 2 μM final concentration, therefore 100 μl of a 60 μM stock solution was added to a 3 ml assay. Ethidium Bromide 2 μM final concentration therefore 100 μl of a 60 μM stock solution was added to a 3 ml assay. Distilled H2O Water was added to produce 3 ml reaction volume. Order of addition: 1. DNA, 2. Water, 3. Drug, 4. Dye
(§14) The assay was completed with both Hoescht Dye and Ethidium. Bromide for each compound. The ethidium bromide is a DNA inter-chelator, Hoescht Dye is a minor groove binder. 100, 200 and […] of the lowest compound dilution was assayed. This procedure was repeated with all further dilution's. This provided a curve of fluorescence intensity decrease with increasing compound concentration. QE50 and QH50 values were determined by extrapolating the concentration of compound at the point where the fluorescence intensity was reduced by 50%. Controls involving compound only and ethidium. bromide or Hoechst Dye without compound were carried out for each experiment. Two readings for each concentration of compound were performed per experiment, each experiment was repeated at least three times. Fluorometer: Perkin Elmer Luminescence Spectrometer LS 50B.

[7] = test system: DNA: Calf thymus sodium salt; experiment: DNA binding assay, Hoechst dye displacement; parameters: key: NB = Not binding; conditions: concentration required to displace 50% of the Hoescht Dye; 20 μM DNA, 2 μM dye
Experimental: as §9, §10, §11, §12, §13, §14

[8] = target: T3, Topoisomerase I (Homo sapiens, UniProt P11387); experiment: Topo I cleavage assay; assay type: biochemical; conditions: at 10 μM
T3 sequence (P11387 1-765): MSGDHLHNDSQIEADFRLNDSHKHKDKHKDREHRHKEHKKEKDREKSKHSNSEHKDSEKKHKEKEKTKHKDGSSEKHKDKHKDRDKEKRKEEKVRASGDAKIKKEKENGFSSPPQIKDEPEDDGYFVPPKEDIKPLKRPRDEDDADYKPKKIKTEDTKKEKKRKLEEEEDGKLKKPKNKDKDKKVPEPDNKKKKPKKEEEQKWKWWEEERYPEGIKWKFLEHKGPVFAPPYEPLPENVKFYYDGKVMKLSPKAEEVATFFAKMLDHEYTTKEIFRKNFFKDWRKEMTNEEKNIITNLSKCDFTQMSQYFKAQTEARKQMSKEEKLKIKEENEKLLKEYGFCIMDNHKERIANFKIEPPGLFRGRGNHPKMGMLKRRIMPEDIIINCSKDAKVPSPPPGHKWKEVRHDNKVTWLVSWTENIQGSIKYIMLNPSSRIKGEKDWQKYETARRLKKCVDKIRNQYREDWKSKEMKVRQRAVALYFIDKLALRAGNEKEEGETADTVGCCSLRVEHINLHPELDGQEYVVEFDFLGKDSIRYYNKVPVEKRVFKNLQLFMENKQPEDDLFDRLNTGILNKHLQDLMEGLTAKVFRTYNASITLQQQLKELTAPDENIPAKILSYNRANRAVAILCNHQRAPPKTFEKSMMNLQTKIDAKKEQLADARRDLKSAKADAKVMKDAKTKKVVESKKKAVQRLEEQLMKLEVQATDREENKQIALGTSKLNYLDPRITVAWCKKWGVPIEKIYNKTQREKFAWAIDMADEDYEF

Row | SMILES | IC50 [1] [µM] | TopIIα Relax. [2] | TopIIβ Relax. [3] | further results
1 | CC(C)[C@H](N)C(=O)OCCCNc1cccc2c1C(=O)c1ccccc1C2=O.O=C(O)C(F)(F)F [Example 35, 1-[3-(L-valyloxy)propylamino]anthracene-9,10-dione trifluoroacetate] | 2.9 | — | — | 
2 | CC(C)[C@@H](N)C(=O)OCCCNc1cccc2c1C(=O)c1ccccc1C2=O.O=C(O)C(F)(F)F [Example 37, 1-[3-(D-valyloxy)propylamino]anthracene-9,10-dione trifluoroacetate] |  | — | — | TopIIβ Decat. [4]: 25; TopIIα Decat. [5]: —
3 | N[C@@H](Cc1c[nH]c2ccccc12)C(=O)OCCCNc1cccc2c1C(=O)c1ccccc1C2=O.O=C(O)C(F)(F)F [Example 41, 1-[3-(L-tryptophyloxy)propylamino]anthracene-9,10-dione trifluoro-acetate] |  | — |  | 
4 | O=C(O)C(F)(F)F.O=C1c2ccccc2C(=O)c2c(NCCCCOC(=O)[C@@H]3CCCN3)cccc21 [Example 47, 1-[4-(L-prolyloxy)butylamino]anthracene-9,10-dione trifluoroacetate] |  | 5 | 10 | 
5 | O=C(O)C(F)(F)F.O=C1c2ccccc2C(=O)c2c(NCCCCOC(=O)[C@H]3CCCN3)cccc21 [Example 49, 1-[4-(D-prolyloxy)butylamino]anthracene-9,10-dione trifluoroacetate] |  | 25 | 25 | 
6 | CC(C)[C@H](N)C(=O)OCCCNc1ccc(O)c2c1C(=O)c1c(O)cccc1C2=O.O=C(O)C(F)(F)F [Example 57, 4,8-dihydroxy-1-[3-(L-valyloxy)propylamino]anthracene-9,10-dione trifluoroacetate] | 3.8 | — | 25 | TopIIβ Decat. [4]: 25; TopIIα Decat. [5]: —
7 | O=C(O)C(F)(F)F.O=C1c2ccccc2C(=O)c2c(NCCCOC(=O)[C@@H]3CCCN3)cccc21 [Example 67, 1-[3-(L-prolyloxy)propylamino]anthracene-9,10-dione trifluoroacetate] | 8.3 |  |  | QE50 Intercalating [6]: NB; QH50 Minor groove binding [7]: NB; melting point: 66 °C
8 | O=C(O)C(F)(F)F.O=C1c2ccccc2C(=O)c2c(NCCCOC(=O)[C@H]3CCCN3)cccc21 [Example 69, 1-[3-(D-prolyloxy)propylamino]anthracene-9,10-dione trifluoroacetate] | 10.2 |  |  | QE50 Intercalating [6]: NB; QH50 Minor groove binding [7]: NB; melting point: 66 °C
9 | CC[C@@]1(O)C(=O)OCc2c1cc1n(c2=O)Cc2cc3ccccc3nc2-1 [campothecin, reference compound] |  |  |  | nicked plasmid [8]: 90%
